Measurements published in patent publication US20150202308A1, “BUDESONIDE FORMULATION” (Nephron Pharmaceuticals Corporation, priority 2014, published 2015).
One block for each molecule: values may come before it.

Assays:
Format in all cases: physicochemical
[1] = Complexation efficiency of budesonide with 2-HY-B-cyclodextrin in buffer vs. water (end point % assay); settings: for % Assay at T = min. (amount of Budesonide complexed): 3% 2-HY-B-Cyclodextrin; for time to reach 100% complexation: determined from the data
Protocol: (§1) Preparation of Lab Batches: Tared a clean/dry beaker+stir bar. Weighed and transferred Budesonide and cyclodextrin into the beaker and mixed dry to achieve uniform dispersion. Dissolved with a portion of stock buffer solution to create a saturated ionic phase and mixed for 5-20 minutes. Slowly diluted with the buffer solution and mixed for an additional 5-10 minutes. The pH of the solution was then adjusted with 1M citric acid or 1M NaOH and diluted to the final volume with purified water. While mixing, the solution was sparged with nitrogen for 30 minutes.
An end point analysis was conducted to evaluate the efficiency of the formulation procedure. Laboratory batches of Budesonide Inhalation Solution were prepared in 3% 2-HY-B-Cyclodextrin and assayed to evaluate the efficiency of the formulation procedure. During the second study, the rate of complexation between Budesonide and 2-HY-B-Cyclodextrin was evaluated in both Buffer and Water.
Six laboratory batches of Budesonide Inhalation Solution were prepared as described above, 3 each in buffer and water. The amount of Budesonide complexed was evaluated at 5 minutes, 8 minutes and 12 minutes for each solvent and compared to the expected concentration at the 100% level.

[2] = Complexation rate in buffer vs. water (filtered slurry, UV-Vis); settings: excess Budesonide, 2 g 2-HY-B-CD in 12.5 mL concentrated buffer or water; FIG. 1
Protocol: To evaluate the initial association rate of Budesonide with 2-hydroxypropyl-beta-cyclodextrin, excess Budesonide was mixed with 2 g of 2-HY-B-CD in 12.5 mL of concentrated buffer solution or water. 1.0 mL of this slurry was filtered through a 0.2 syringe filter to remove un-complexed Budesonide and evaluated by UV-Vis at 2 minute intervals. A positive control prepared from filtered Budesonide Inhalation Suspension containing 0.25 mg/mL of Budesonide was used to ensure non-interference. […] This is consistent with the particle size distribution of the API which has a small percentage of Budesonide with <0.2 μm particle size diameter. This small amount of Budesonide was determined not to be significant enough to bias the results.

[3] = Filtration study of laboratory batches (assay before and after 0.22 μm filters); settings: Budesonide with 2-hydroxypropyl-β-cyclodextrin, room temperature
Protocol: In this study 50 mL of 5 separate laboratory batches were filtered through PTFE, PVDF, and PES 0.22 μm filters. In the case that the complexation reaction was not completed, the filtration process would remove the un-complexed budesonide producing a significant difference between the assay values before and after filtration. For each of the lab batches tested, no significant difference between pre and post filter assay values was detected, indicating 100% complexation.

[4] = Minimum concentration of 2-hydroxypropyl-B-cyclodextrin for complexation (assay)
Protocol: Studies were conducted to determine the minimum concentration of 2-Hy-B-cyclodextrin required to achieve 100% budesonide complexation. […] To evaluate if a lower concentration may be used a study was conducted to evaluate if 100% complexation was possible at between 0.5% and 3.0% cyclodextrin. • Complexation efficiency in buffer vs. water: Traditional methods of complexation are usually carried out in water. We conducted studies to evaluate the efficiency of Budesonide-cyclodextrin complexation using a complexation solution of high ionic strength and using purified water. • Alternative Salts or Complexation: The ionic strength of the Buffer solution was calculated to be approximately 508 mol/m^−3. Two alternative salts, Sodium Chloride and Potassium Chloride, and a Phosphate buffer were prepared at the same ionic strength. Laboratory batches of budesonide inhalation solution were prepared using each alternative ionic adjuster to evaluate the effects of various salts on the formulation process. • Alternative Beta-Cyclodextrins for Complexation: […] additional Beta Cyclodextrins, 2-hydroxyethyl-B-cyclodextrin and Heptakis 2,6-Di-O-Methyl-B-cyclodextrin, were evaluated as potential alternatives for complexation with Budesonide.
as §1
Laboratory batches of budesonide inhalation Solution 0.188 mg/mL were prepared to determine the minimum concentration of 2-Hydroxypropyl-B-cyclodextrin required for an effective formulation. Each laboratory batch was prepared as per the procedure described above.

[5] = EDTA and gamma-cyclodextrin effects on formulation stability; settings: for effect on formulation stability / effect of varying the amount on stability: 90 days at 40° C.; for effect of varying the amount on stability: varied beginning at 0.05%
Protocol: A study was designed to evaluate the effects of EDTA and γ-CD on the formulation stability. Both γ-CD and EDTA were varied beginning at 0.05% and tested at 30 day intervals for 90 days stored at 40° C.

[6] = Preliminary proof of concept studies of the new complexation process
[7] = Alternative beta-cyclodextrins for complexation with budesonide (% assay); settings: for % Assay: budesonide inhalation solution 0.188 mg/mL
Protocol: as §1
Alternative Beta-Cyclodextrins for Complexation: Laboratory batches of budesonide inhalation solution 0.188 mg/mL were prepared in buffer and water according to the procedure described above using 2-hydroxyethyl-B-cyclodextrin and Heptakis 2,6-Di-O-Methyl-B-cyclodextrin.

[8] = budesonide at 0.188 mg/mL, in buffer

Molecule: CCCC1O[C@@H]2C[C@H]3[C@@H]4CCC5=CC(=O)C=C[C@]5(C)[C@H]4[C@@H](O)C[C@]3(C)[C@]2(C(=O)CO)O1 (stereo partly drawn) [Budesonide, 16,17-(butylidenebis(oxy))-11,21-dihydroxy-, (11-β,16-α)-pregna-1,4-diene-3,20-dione]
% Assay at T = min. (amount of Budesonide complexed) ([1]; solvent Buffer, 5 minutes, vs expected concentration at 100% level): 91.1% | % Assay at T = min. (amount of Budesonide complexed) ([1]; solvent Buffer, 8 minutes): 96.3% | % Assay at T = min. (amount of Budesonide complexed) ([1]; solvent Buffer, 12 minutes): 99.7% | % Assay at T = min. (amount of Budesonide complexed) ([1]; solvent Water, 5 minutes): 71.9% | % Assay at T = min. (amount of Budesonide complexed) ([1]; solvent Water, 8 minutes): 78.1% | % Assay at T = min. (amount of Budesonide complexed) ([1]; solvent Water, 12 minutes): 89.7% | increase in the initial complexation efficiency ([1]; batches in concentrated buffer solution over those prepared in water): ~22% | increase in efficiency ([1]; buffer vs. water, from times to 100% complexation): 180% | time to reach 100% complexation ([1]; in buffer): approximately 9 minutes | time to reach 100% complexation ([1]; in water): ~16.2 min | rate of complexation with 2-hydoxypropyl-B-cyclodextrin [2]: much higher rate in buffer than in water | time to virtually 100% complexation efficiency [3]: less than 10 minutes | complexation efficiency ([3]; no organic solvents): ~100% | minimum desirable concentration of cyclodextrin to meet the USP monograph [4]: ≥ 3.0% | Assay ([4]; 0.188 mg/mL, 0.5% cyclodextrin, molar ratio 8.4): 75.9% | Assay ([4]; 0.188 mg/mL, 1.0% cyclodextrin, molar ratio 16.8): 85.9% | Assay ([4]; 0.188 mg/mL, 1.5% cyclodextrin, molar ratio 25.2): 91.5% | Assay ([4]; 0.188 mg/mL, 2.0% cyclodextrin, molar ratio 33.6): 95.5% | Assay ([4]; 0.188 mg/mL, 2.5% cyclodextrin, molar ratio 41.9): 95.7% | complexation of Budesonide ([4]; 3.0% 2-Hydroxypropyl-B-cyclodextrin, molar ratio 50.33): 100% | complexation of Budesonide ([4]; 4% (w/v) beta-cyclodextrin, Budesonide at 0.188 mg/mL, stable): 100% | ratio of epimer A (of total content) ([4]; below 3.0% Beta-cyclodextrin, USP criterion 40%-51%): exceeded 51% | Assay ([4]; budesonide inhalation solution 0.188 mg/mL, 3.0% 2-Hydroxypropyl-B-cyclodextrin, molar ratio CD:Budesonide 50.3): 99.4%

Molecule: O=C(O)CN(CCN(CC(=O)O)CC(=O)O)CC(=O)O [EDTA]
effect on formulation stability [5]: positive effect on stability | effect on growth of impurity D ([5]; previous studies): helps control the growth of impurity D | effect of varying the amount on stability [5]: no significant effects

Molecule: 2-Hydroxyethyl-B-cyclodextrin
% Assay ([7]; 3% cyclodextrin): 66.7% | % Assay ([7]; 6% cyclodextrin): 90.3% | % Assay ([7]; 8% cyclodextrin): 96.4% | efficiency of complexation possible ([7]; within the proposed range of cyclodextrin (3%-8%)): 100%

Molecule: COCC1OC2OC3C(COC)OC(OC4C(COC)OC(OC5C(COC)OC(OC6C(COC)OC(OC7C(COC)OC(OC8C(COC)OC(OC1C(O)C2OC)C(OC)C8O)C(OC)C7O)C(OC)C6O)C(OC)C5O)C(OC)C4O)C(OC)C3O (stereo not drawn) [2,6-di-o-mehtyl, Heptakis 2,6-Di-O-Methyl-B-cyclodextrin]
efficiency of complexation with available budesonide [7, 8]: 100% | time to 100% efficiency of complexation [7, 8]: 3 to 5 min | % Assay ([7]; 3% cyclodextrin): 101.9%

Next, values leading:

effect on formulation stability [5]: positive effect on stability | effect of varying the amount on stability [5]: no significant effects
Molecule: OC[C@H]1O[C@@H]2O[C@H]3[C@H](O)[C@@H](O)[C@@H](O[C@H]4[C@H](O)[C@@H](O)[C@@H](O[C@H]5[C@H](O)[C@@H](O)[C@@H](O[C@H]6[C@H](O)[C@@H](O)[C@@H](O[C@H]7[C@H](O)[C@@H](O)[C@@H](O[C@H]8[C@H](O)[C@@H](O)[C@@H](O[C@H]9[C@H](O)[C@@H](O)[C@@H](O[C@H]1[C@H](O)[C@H]2O)O[C@@H]9CO)O[C@@H]8CO)O[C@@H]7CO)O[C@@H]6CO)O[C@@H]5CO)O[C@@H]4CO)O[C@@H]3CO [γ-CD, Gamma-cyclodextrin]

percent of HP-β-CD required [6]: < 10%
Molecule: 2-Hydroxypropyl-β-cyclodextrin [HP-β-CD]
